Measured values taken from article PMC3967766 (Journal of medicinal chemistry, 2013).
“Also recorded” adds a separate entry of the source. Like-named read-outs stand apart in the source and are kept apart here.

How the values were obtained:
RAW 264.7 cells [1] = experiment: RANKL-induced osteoclast formation assay; settings: 5 days; for inhibitory activity on RANKL-induced osteoclast formation: RAW 264.7, RANKL 15 ng/mL; for inhibition rate of osteoclast formation: RANKL 15 ng/mL
CB2 receptor [2] = biological target: T1, CB2 receptor (Homo sapiens, UniProt P34972); experiment: [3H]CP-55,940 radioligand competition binding assay, CB2
CB2 receptor [3] = biological target: T1, CB2 receptor; experiment: cell-based LANCE cAMP assay in CHO cells stably expressing CB2
CB1 receptor = CB1 receptor (Homo sapiens, UniProt P21554); experiment: [3H]CP-55,940 radioligand competition binding assay, CB1; settings: read-out: Ki (CB1); [3H]CP-55,940 competition, CB1 membrane protein
RAW 264.7 cells [4] = experiment: MTT cytotoxicity assay on osteoclast precursors; type: cell-based, mouse; settings: for cell viability versus vehicle control: 1.25 and 2.5 µM; for cell viability: 5 and 10 µM

T1 sequence (P34972 whole entry): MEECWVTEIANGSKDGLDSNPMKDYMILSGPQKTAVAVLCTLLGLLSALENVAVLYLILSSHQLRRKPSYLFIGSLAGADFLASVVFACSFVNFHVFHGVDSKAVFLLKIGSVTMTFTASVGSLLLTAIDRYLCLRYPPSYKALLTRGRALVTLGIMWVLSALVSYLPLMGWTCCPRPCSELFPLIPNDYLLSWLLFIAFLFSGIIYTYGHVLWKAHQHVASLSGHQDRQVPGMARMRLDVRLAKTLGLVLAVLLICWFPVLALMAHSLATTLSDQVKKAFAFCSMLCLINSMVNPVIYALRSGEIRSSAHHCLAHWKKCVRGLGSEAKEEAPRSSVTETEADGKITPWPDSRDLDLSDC
Chain of CB1 receptor (P21554 whole entry): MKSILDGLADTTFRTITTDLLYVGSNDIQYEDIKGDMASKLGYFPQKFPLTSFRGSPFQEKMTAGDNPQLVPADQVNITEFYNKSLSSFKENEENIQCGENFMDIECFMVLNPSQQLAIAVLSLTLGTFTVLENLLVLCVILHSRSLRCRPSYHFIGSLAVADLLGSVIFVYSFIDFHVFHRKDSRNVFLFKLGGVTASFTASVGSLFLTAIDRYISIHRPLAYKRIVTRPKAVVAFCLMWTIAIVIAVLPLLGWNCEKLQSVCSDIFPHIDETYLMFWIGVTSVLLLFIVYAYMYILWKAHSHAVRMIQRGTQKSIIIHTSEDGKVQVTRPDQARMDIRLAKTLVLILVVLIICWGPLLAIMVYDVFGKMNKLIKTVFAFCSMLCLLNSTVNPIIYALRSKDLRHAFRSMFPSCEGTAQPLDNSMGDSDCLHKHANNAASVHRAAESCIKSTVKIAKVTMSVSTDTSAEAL

CCN(CC)c1ccc(CN([C@]23C[C@H]4C[C@H](C[C@H](C4)C2)C3)S(=O)(=O)c2cccc(C)c2)cc1 [Compound 25, N-((3s,5s,7s)-Adamantan-1-yl)-N-(4-(diethylamino)benzyl)-3-methylbenzenesulfonamide]
inhibitory activity on RANKL-induced osteoclast formation (RAW 264.7 cells [1]): inhibit RANKL-induced osteoclastogenesis in a dose-dependent manner; also recorded: potent inhibitory activity
Ki (CB2 receptor [2]): 25 nM

CCN(CC)c1ccc(CN(c2ccc(C)cc2)S(=O)(=O)c2ccccc2)cc1 [Compound 54, N-(4-(Diethylamino)benzyl)-N-(p-tolyl)benzenesulfonamide]
CB2 functional activity (CB2 receptor [3]; LANCE cAMP assay): inverse agonists

CCN(CC)c1ccc(CN(C(=O)Cc2ccc(Cl)cc2)c2ccc(Cl)cc2)cc1 [Compound 52, N,2-bis(4-Chlorophenyl)-N-(4-(diethylamino)benzyl)acetamide]
Ki (CB1 receptor): > 20000 nM

CCCCCCC(C)(C)c1cc(OC)c([C@H]2C=C(CO)[C@H]3C[C@@H]2C3(C)C)c(OC)c1 (stereo in doubt) [HU308, reference compound]
CB2 functional activity (CB2 receptor [3]; LANCE cAMP assay): agonists

CCN(CC)c1ccc(CN([C@]23C[C@H]4C[C@H](C[C@H](C4)C2)C3)S(=O)(=O)c2ccc(F)cc2)cc1 [Compound 21, N-((3s,5s,7s)-Adamantan-1-yl)-N-(4-(diethylamino)benzyl)-4-fluorobenzenesulfonamide]
CB2 functional activity (CB2 receptor [3]; LANCE cAMP assay): inverse agonists

Cc1ccc(Cn2nc(C(=O)NC3C4(C)CCC(C4)C3(C)C)cc2-c2ccc(Cl)c(C)c2)cc1 (stereo not drawn) [Compound 5, SR144528, reference compound]
CB2 functional activity (CB2 receptor [3]): inverse agonists

CCCCCCC(C)(C)c1ccc([C@@H]2C[C@H](O)CC[C@H]2CCCO)c(O)c1 [CP55940, reference compound]
CB2 functional activity (CB2 receptor [3]): agonists

CCN(CC)c1ccc(CN(c2ccc(C)cc2)S(=O)(=O)c2ccc(OC)cc2)cc1 [Compound 57, N-(4-(Diethylamino)benzyl)-4-methoxy-N-(p-tolyl)benzenesulfonamide]
inhibition rate of osteoclast formation (RAW 264.7 cells [1]; 0.1 µM): strongest inhibition activity
inhibition rate of osteoclast formation (RAW 264.7 cells [1]; 1 µM): good inhibition activity
inhibitory activity on RANKL-induced osteoclast formation (RAW 264.7 cells [1]): potent inhibitory activity; also recorded: inhibit RANKL-induced osteoclastogenesis in a dose-dependent manner
effect on cell viability (RAW 264.7 cells [4]; 5 µM, 3 days, MTT): only slight effect on cell viability
cell viability versus vehicle control (RAW 264.7 cells [4]; 3 days, MTT): not significantly affected
cell viability (RAW 264.7 cells [4]; 3 days, MTT): only some effects on cell viability
cytotoxic effects on RAW 264.7 (RAW 264.7 cells [4]; cell viability test, overall): very low cytotoxic effects
CB2 functional activity (CB2 receptor [3]; LANCE cAMP assay): inverse agonists

CCN(CC)c1ccc(CN(c2ccc(Cl)cc2)S(=O)(=O)c2ccc(OC)cc2)cc1 [Compound 48, N-(4-Chlorophenyl)-N-(4-(diethylamino)benzyl)-4-methoxybenzenesulfonamide]
inhibition rate of osteoclast formation (RAW 264.7 cells [1]; 1 µM): good inhibition activity
inhibitory activity on RANKL-induced osteoclast formation (RAW 264.7 cells [1]): inhibit RANKL-induced osteoclastogenesis in a dose-dependent manner; also recorded: potent inhibitory activity
cell viability versus vehicle control (RAW 264.7 cells [4]; 3 days, MTT): not significantly affected
cell viability (RAW 264.7 cells [4]; 3 days, MTT): only some effects on cell viability
CB2 functional activity (CB2 receptor [3]; LANCE cAMP assay): inverse agonists
